Eleven compounds from US6888033B1, “Anti-viral compounds” (Cytoclonal Pharmaceutics, Inc., priority 1996, dated 2005) can be followed below.

Data set [1] has as its target T1, Recombinant HRV-1A 3C protease (Human rhinovirus 1A, UniProt P23008).
T1 construct: HRV-1A 3C protease was produced in E. Coli [BL21(DE3)pLysS] containing the protease gene; made in house; host or cells: E. coli BL21(DE3)pLysS, T7 expression vector
Put plainly: HRV 3C Protease Inhibition Assay - HPLC Method. Type of data set: biochemical. Particulars: Km value of 1.9 mM, overnight incubation.

For the next data set, the system named is elastase. Kind of data set: Elastase cleavage activity (specificity). Type of data set: biochemical. The settings on record: 50 mM DIF1. How it is done:
(§1) The specificity of DIF1 as an enzyme inhibitor was tested using cleavage assays for a number of other enzymes, including elastase, cathepsin B, chymotripsin, papain and ficin A. Elastase was particularly important because it is present in […], so that inhibition of its activity could potentially be highly toxic. […] The experimental method was as follows.
The cleavage activity of elastase was determined in 0.1 M Tris-HCl pH 7.0 buffer containing 20 μg/ml enzyme and its synthetic substrate. N-succinyl-Ala-Ala-Ala-p-nitroanilide.

Another data set concerns the target chymotripsin (Bos taurus, UniProt P00766). Kind of data set: Chymotripsin assay (specificity). Particulars: all DIF1 concentrations tested. Type of data set: biochemical. How it is done: as §1
(§2) The cleavage activity for cathepsin B was assayed according to the method of Bajowski an Frankfater (Anal. Biochem. 68:119 (1975)). Chymotripsin was assayed in 0.1M KPi buffer pH 7.0 containing 0.04 μg/ml enzyme and 200 μM N-benzyl-L-tryosine ethyl ester (from a 20 mM stock in dimethyl sulfoxide). The reaction was monitored by spectrophotometry at 256 nm.

Another data set deals with ficin A. Kind of data set: Ficin assay (specificity). Type of data set: biochemical. The settings on record: all DIF1 concentrations tested. Here is the method: as §1
(§3) Papain and Ficin were incubated for one hour in an activation solution containing 0.1 M KPi buffer pH 7.0. 0.5 mM cysteine, 20 mM EDTA and 65 μg enzyme. The assays were carried out by adding 20 μl aliquots from the activation mix to 0.1 M KPi buffer pH 7.0, containing 12.5 nM N-CBZ-p-Nitrophenyl ester. The reaction was monitored by spectrphotometry at 405 nm.

The target in the next data set is cathepsin B (Homo sapiens, UniProt P07858). Kind of data set: Cathepsin B cleavage activity (specificity). Particulars: all DIF1 concentrations tested. Type of data set: biochemical. Here is the method:
as §1, §2

The target in a further data set is T2, papain (Carica papaya, UniProt P00784).
T2 sequence (P00784 134-345): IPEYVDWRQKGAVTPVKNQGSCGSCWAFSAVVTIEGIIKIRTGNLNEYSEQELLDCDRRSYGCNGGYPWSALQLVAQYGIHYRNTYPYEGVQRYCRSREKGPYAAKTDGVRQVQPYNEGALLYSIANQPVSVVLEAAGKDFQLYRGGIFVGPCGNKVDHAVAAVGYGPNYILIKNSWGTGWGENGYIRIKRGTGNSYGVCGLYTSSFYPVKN
Put plainly: Papain assay (specificity). Type of data set: biochemical. The settings on record: all DIF1 concentrations tested. How it is done:
as §1, §3

In data set [2] the test system is human rhinovirus 14, strain 1059. Put plainly: Inhibition of virus in whole-cell assay (inhibition of cytopathic effect). Type of data set: cell-based. Here is the method: H1-HeLa cells, obtained from ATCC (F-13824, 1958-CRL) were cultured in MEM (Minimum Essential Medium) supplemented with 10% heat-inactivated fetal calf serum (FCS) by incubation at 37° C, 5% CO2 (Biological Industry, Kibbuts Beit HaEmek, Israel).
96 well plates were seeded to 90% confluency. After 12-24 hrs of incubation, the cell's monolayer was washed with phosphate-buffered saline (PBS), and the cells were subsequently infected with ten-fold dilutions in PBS (log10) of human rhinovirus 14, strain 1059, obtained from ATCC.
For each concentration of compound, three rows of wells containing various dilutions of virus were used. After 1 h of incubation at room temperature, medium containing 3% FCS and various concentrations of compound to be tested was placed in the well. After 2 days incubation at 34° C, 5% CO2, the cells were fixed by 10% formaldehyde and stained with methylene blue to determine cell viability. The cytopathic effect of non-viable cells was arbitrarily set to 100% for the untreated viral infection, so that the effect of each compound on cell viability was determined according to this baseline. Each experiment was performed 5 times for each compound, and the inhibition of cytopathic effect (ICE50) for inhibition of viral activity was calculated. […] ICE50 refers to the concentration in which 50% of the cells remain viable after viral infection.
(In general: Protection from cytopathic effect is a common read-out in antiviral testing.)

The subject of another data set is H1-HeLa cells. Put plainly: 50% toxic dose (TD50). Type of data set: cell-based.
A further data set concerns the target T3, HRV 3C protease (Human rhinovirus 1A, UniProt P23008).
T3 construct: 2.5 μg of HRV 3C protease
Kind of data set: Inhibition of 3C protease cleavage activity, peptide cleavage assay with reverse phase HPLC. Type of data set: biochemical. How it is done:
Next, the inhibition of 3C protease activity was measured by using a cleavage assay. […] Specific cleavage of this peptide [(N-Ac)Arg-Ala-Glu-Leu-Gln-Gly-Pro-[…]-Asp-Glu] (SEQ ID NO:2) by HRV 3C provided two pentapeptides. In a typical experiment 80 μg of peptide, dissolved in 100 mM TRIS (pH 8) and 100 mM NaCl, was incubated at 35° C. with 2.5 μg of HRV 3C protease with and without DIF1, to give a total volume of 30 μl. In both cases 3C was suspended in a buffered solution (40 mM Tris-HCL, pH 8.0, 100 mM, NaCl, 1 mM DTT, 1 mM EDTA), 2.5 mg of DIF1 (dissolved in 1 ml of ethanol) was used, corresponding to a concentration of 270 μM. Inhibitory effects due to the organic solvent were not observed; nevertheless, 10 μl of ethanol were added to the control. Aliquots were drawn at short intervals (within ca. 40 min.) and quenched with an equal volume of 1% TFA in Methanol (HPLC grade). […]
The degree of 3C protease inhibition by DIF1 was found by integration of peak areas under the 280 nm absorption curve. The degree of cleavage was calculated as the ratio of peak areas corresponding to peptide alone and peptide plus GPYDE (SEQ ID NO:3) product. Quantification was based on the initial, linear portion of the absorption curve, which represents less than 20% cleavage.

Molecules are shown by their SMILES. Like-named read-outs stand apart in the source and are kept apart here.

T1 sequence (P23008 1515-1697): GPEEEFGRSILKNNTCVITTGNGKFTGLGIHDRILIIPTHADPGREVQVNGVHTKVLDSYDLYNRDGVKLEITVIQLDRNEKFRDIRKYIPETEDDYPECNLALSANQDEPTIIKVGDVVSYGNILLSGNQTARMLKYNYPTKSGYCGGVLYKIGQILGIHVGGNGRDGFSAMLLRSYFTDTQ
T3 sequence (P23008 1515-1697): as above

On to `COCCC(O)CC(O)C(=O)c1ccccc1` (stereo not drawn) [Compound 108, 2,4-dihydroxy-6-methoxyhexanophenone], for which the melting point (commonly the temperature of the solid-liquid transition) was determined as 109 °C.

The compound `COC(CCO)CC(O)C(=O)c1ccccc1` (stereo not drawn) [Compound 107, 2,6-dihydroxy-4-methoxyhexanophenone] returned a melting point of 121 °C.

For the compound `CCCCCC(=O)c1c(O)c(Cl)c(OC)c(Cl)c1O` [Compound 15, 1-(3,5-dichloro-2,6-dihydroxy-4-methoxyphenyl)-hexan-1-one], the Ki (in general, a measure of affinity in units of concentration, obtained from inhibition or displacement) in data set [1] was determined as 460 ± 80 µM; on HRV 3C protease (HRV 3C protease, N-acetylated 10-mer peptide substrate, 35° C.) it was 220 µM. In the data set on elastase, the “inhibition of cleavage activity of elastase” value is “did not inhibit”. Also, at chymotripsin, the “effect on proteolytic activity of chymotripsin” value is “not to effect”. Also, in the data set with ficin A, the “effect on proteolytic activity of ficin A” value is given as “not to effect”. Further, the “effect on proteolytic activity of cathepsin B” value on cathepsin B is “not to effect”. Further, the “effect on proteolytic activity of papain” value at papain is on record as “not to effect”. The compound further yielded an IC50 in [2] (Rhinovirus B, H1-HeLa) of 7.5 µM. The TD50 in the data set on H1-HeLa cells worked out at 30. Moreover, the “rate of substrate cleavage” value on HRV 3C protease (in the presence of 270 μM DIF1) is listed as “decreased significantly”.

Consider `COc1cc(O)c(Cl)c(O)c1C(C)=O` [Compound 25], for which the melting point lay within 187.5 to 189 °C. The Ki in [1] turned out to be 3000 ± 1500 µM. Further, the IC50 in data set [2] (Rhinovirus B, 48 h, H1-HeLa cells, HRV 14, 2 days at 34° C, Table 1, Formula IV, read-out: ICE50) came to 11 µM. In addition, the “TD50” value with H1-HeLa cells (human) was found to be 22 µM.

As to `COc1cc(O)cc(O)c1C(C)=O` [Compound 23, 2,4-dihydroxy-6-methoxy acetophenone], the “TD50” value with H1-HeLa cells (Table 1, Formula IV) was found to be 220 µM.

`O=C(CCc1ccc(O)cc1)c1c(O)cc(O)cc1O` [Formula VIII, Z′=OH, Y′=H, R3=OH, Y=H, phloretin]: the TD50 in the data set on H1-HeLa cells is 160.

Consider `CCCCCC(=O)c1c(O)c(Cl)c(O)c(Cl)c1OC` [Compound 16, 1-(3,5-dichloro-2,4-dihydroxy-6-methoxyphenyl)-hexan-1-one], for which the Ki in [1] was 390 ± 30 µM. For the same compound, in data set [2] (Rhinovirus B, H1-HeLa cells, HRV 14, Table 2, Formula V, read-out: IC50), the IC50 worked out at 3 µM. In the data set with H1-HeLa cells, the TD50 is 40.

For `COc1ccc(C(=O)c2ccccc2O)c(O)c1` [Compound 1, Dioxybenzone, reference compound], in [1], the Ki turned out to be 4700 ± 900 µM.

For `CC(=O)c1c(O)c(Cl)cc(Cl)c1O` [Compound 109], the IC50 in data set [2] (H1-HeLa cells, HRV 14, 2 days at 34° C, Table 1, Formula IV, read-out: ICE50) was found to be 1250 µM. In addition, the “TD50” value in the data set on H1-HeLa cells is 5000 µM.

With `O=C1C=CC(=O)c2c(O)cccc21` [Compound 3, Juglone, reference compound], in data set [1], the Ki was determined as 630 ± 70 µM.

Regarding `CCCCCC(=O)c1c(O)c(Cl)c(O)c(Cl)c1O` [Compound 20], the Ki in [1] turned out to be 460 ± 60 µM. The TD50 with H1-HeLa cells is given as 1875.
